The text below walks through data of patent publication US20050222227A1, “Oxazole-amine compounds for the treatment of neurodegenerative disorders” (Pfizer Inc, priority 2004, published 2005).

The assay concerns gamma-secretase. Kind of assay: gamma-secretase activity in a solubilized membrane preparation (cell-free assay). It counts as biochemical. Particulars: according to McLendon et al., read-out: IC50 activity for inhibiting gamma-secretase. An excerpt: The activity of compounds of the Formula I of the present invention in inhibiting gamma-secretase activity may be determined in a solubilized membrane preparation generally according to the description provided in McLendon et al. Cell-free assays for γ-secretase activity, The FASEB Journal (Vol. 14, December 2000, pp. 2383-2386).

As a reminder, the IC50 is the concentration needed to halve the response being measured.

A value given as a limit tells only on which side of the number the result lay.

In the case of `C/C=C(\C)c1cnc(NC(=O)[C@H](CCC)NC2CCc3cc(F)cc(F)c3C2)o1` (stereo partly drawn) [Example 1, (S)-2-(5,7-difluoro-1,2,3,4-tetrahydronaphthalen-3-ylamino)-N-(5-((E)-but-2-en-2-yl)oxazol-2-yl)pentanamide], the half-inhibitory concentration (IC50) was < 10 µM.
